PubChem BioAssay (NCI)
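48-hour exposure; five concentrations; linearly interpolated endpoints. Here, GI50 denotes the concentration required for 50% inhibition of growth. At the TGI there is no net growth.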

How the values were obtained:
Experiment in all cases: NCI anticancer screen, dose series, 48 h
[1] = test system: K-562 leukemia
[2] = test system: EKVX NSCLC
[3] = test system: SF-268 CNS
[4] = test system: MALME-3M melanoma
[5] = test system: NCI-H522 lung
[6] = test system: HOP-92 NSCLC
[7] = test system: HL-60(TB) leukemia
[8] = test system: SK-MEL-28 melanoma
[9] = test system: HT29 colon
[10] = test system: A498 renal

Compound	TGI [1]	TGI [2]	TGI [3]	TGI [4]	TGI [5]	TGI [6]	TGI [7]	TGI [8]	TGI [9]	TGI [10]	GI50 [1]	GI50 [2]	GI50 [3]	GI50 [4]	GI50 [5]	GI50 [6]	GI50 [7]	GI50 [8]	GI50 [9]	GI50 [10]
CN1C2C=C(c3ccccc3)CC1CC2 (stereo not given)	> 100 µM	> 100 µM	> 100 µM	> 100 µM	> 100 µM	> 100 µM	> 100 µM	> 100 µM	> 100 µM	> 100 µM										
CCOc1ccc(/C=C/[N+](=O)[O-])cc1	> 100 µM	81.7 µM	28.6 µM	36.9 µM	28 µM	28.1 µM	49 µM	30.9 µM	5.27 µM	11.5 µM	4.52 µM	25.7 µM	14.1 µM	19 µM	13.2 µM	12.9 µM	8.83 µM	16.6 µM	2.32 µM	2.79 µM
O=C1Nc2ccccc2Nc2nc3cccccc-3c21	> 100 µM	> 100 µM	> 100 µM	> 100 µM	> 100 µM	> 100 µM	> 100 µM	> 100 µM	> 100 µM											
CC1(C)CCc2cc3c(-c4ccccc4)cc(=O)oc3cc2O1	> 100 µM	> 100 µM	> 100 µM	> 100 µM	> 100 µM	72.3 µM	> 100 µM	> 100 µM	> 100 µM	> 100 µM										
[C-]#[O+].[Cl][Sn]([Cl])[Cl].[Cl][Sn]([Cl])[Cl].[Pt].c1ccncc1	> 100 µM	> 100 µM	> 100 µM	> 100 µM	> 65.3 µM	> 100 µM	> 74 µM	> 100 µM	> 100 µM	> 100 µM										
c1ccc2c(c1)nc1n2CSC1	> 100 µM	> 100 µM	> 100 µM	> 100 µM	> 100 µM	> 100 µM	> 100 µM	> 100 µM	> 100 µM	> 100 µM										
O=C(Nc1ccc(Cl)cc1)/C(Cc1cccc[n+]1[O-])=N\Nc1ccc([N+](=O)[O-])cc1[N+](=O)[O-]	> 100 µM	> 100 µM	> 100 µM	> 100 µM	> 100 µM	> 100 µM	> 100 µM	> 100 µM		> 100 µM										
CC(C)=CC(=O)OC1C2C(C)C(=O)OC2C(O)C(C)C2C=CC(=O)C21C (stereo not given)	25.3 µM	7.88 µM	8.42 µM	8.28 µM	1.57 µM	8.85 µM	3.4 µM	3.82 µM	7.94 µM	3.29 µM										
O=C(Nc1nc2ccc([N+](=O)[O-])cc2[n+]([O-])n1)C(F)(F)F	79.3 µM		> 100 µM	20.4 µM	> 100 µM	> 100 µM	34.9 µM	> 100 µM	> 100 µM	65.5 µM										
O=C1CN2C(Cl)(Cl)C2(c2ccccc2)c2cc(Cl)ccc2N1CC(F)(F)F (stereo not given)	72.1 µM	> 100 µM	> 100 µM	87 µM	42.7 µM	41.1 µM		61 µM	48.1 µM											
CCOP(=O)(OCC)C(Cc1ccc(OC)c(OC)c1)N=C(c1ccccc1)c1ccccc1 (stereo not given)	22.4 µM		> 100 µM		97.3 µM	> 100 µM	51.9 µM	> 100 µM	> 100 µM	> 100 µM										
Cc1nc2ccccc2c(=O)n1CC(=O)O	> 100 µM	> 100 µM	> 100 µM	> 100 µM	> 100 µM	> 100 µM	> 100 µM	> 100 µM	> 100 µM	> 100 µM										
Cc1cccc2c(N)c3cccc(C(=O)NCCN(C)C)c3nc12	0.543 µM	0.469 µM	2.41 µM	0.606 µM	0.0737 µM	2.94 µM	0.0427 µM	0.482 µM		0.516 µM										
C[C@]12C=CC(=O)C=C1CC[C@@H]1[C@@H]2C(=O)C[C@@]2(C)[C@H]1CC[C@]2(O)C(=O)CO	> 100 µM	> 100 µM	> 100 µM	> 100 µM	> 100 µM	> 100 µM	> 100 µM	> 100 µM	> 100 µM	> 100 µM										
CCN(CC)CCCC(Nc1c2ccc(Cl)cc2nc2ccc(OC)cc12)c1ccc(F)cc1 (stereo not given)	4.26 µM	8.48 µM	5.33 µM	3.68 µM	4.58 µM		4.02 µM	3.2 µM	9.87 µM	21.4 µM	2.18 µM	2.08 µM	2.28 µM	1.99 µM	2.01 µM		1.91 µM	1.71 µM	2.7 µM	7.37 µM
O=C(O)c1cc(=O)[nH]c(=S)[nH]1	> 100 µM	> 100 µM	> 100 µM	> 100 µM	> 100 µM	> 100 µM	> 100 µM	> 100 µM	> 100 µM	> 100 µM										
CC[C@@H](C(=O)[C@@H](C)[C@@H](O)[C@H](C)CCc1ccc(C)c(O)c1C(=O)O)[C@H]1O[C@](CC)([C@H]2CC[C@](O)(CC)[C@H](C)O2)C[C@@H]1C	3.05 µM	9 µM	9.09 µM	2.42 µM	3.11 µM	8.96 µM	1.54 µM	2.86 µM	12.6 µM	2.37 µM										
COc1c2c(cc3c(CCc4ccccc4)cc(=O)oc13)CCC(C)(C)O2	> 100 µM	> 100 µM	> 100 µM	> 100 µM		> 100 µM	> 100 µM	> 100 µM	> 100 µM											
Cc1ccc(/C(=C/C=C(C#N)C#N)Sc2cc(Cl)ccc2Cl)cc1		46.6 µM	43.9 µM	35.5 µM	22.1 µM			28.9 µM	> 100 µM											
CC(C)=CCc1c(C)cc2cc3c(c(O)c2c1O)C(O)=CC(=O)C3(CC=C(C)C)C/C=C(\C)CO (stereo not given)	90.9 µM	70.7 µM	85.4 µM	63.8 µM	65.2 µM	75.6 µM	51.3 µM	86.8 µM	81.4 µM	15.2 µM										
CN1CCN(Cc2ccc(NC(=O)c3ccc(C#N)c(C#Cc4cnc(N)c5ncccc45)c3)cc2C(F)(F)F)CC1		89.7 µM			28.6 µM	58.1 µM	> 100 µM			10.6 µM		19.3 µM			2.94 µM	12.2 µM	14.5 µM			3.25 µM
CCCCN(CCCC)CCCCNc1c(C)cnc2cc(Cl)ccc12	43.3 µM	46.3 µM	85.3 µM	36.1 µM	35.6 µM	36.2 µM		33.2 µM	57.8 µM	86.5 µM										
CCOc1ccc2c(ccc(/C=C\c3cc(C)c4cccnc4c3O)[n+]2C)c1	26.8 µM	15.2 µM	28.3 µM	14 µM	5.14 µM	3.36 µM	1.05 µM	14.6 µM	> 32.8 µM	9.1 µM										
Cc1ccc(S(=O)(=O)Oc2cc(S(=O)(=O)O)cc3cc(S(=O)(=O)O)cc(N)c23)cc1	> 100 µM	> 100 µM	> 100 µM	> 100 µM	> 100 µM	> 100 µM	> 100 µM	> 100 µM	> 100 µM	> 100 µM										
CC1=C[C@]2(CC(C)C3C(CC4(C)C5CCC6C(C)(C)C(=O)CC[C@@]67C[C@@]57CC[C@]34C)O2)OC1=O (stereo not given in full)	> 100 µM	> 100 µM	> 100 µM	> 100 µM		45.7 µM	> 100 µM	> 100 µM	> 100 µM	> 100 µM										
COc1cc2c3c(n(CCN(C)C)c(=O)c2cc1OC)-c1cc2c(cc1C3=O)OCO2	97.4 µM	> 100 µM	> 100 µM	> 52.6 µM	> 100 µM	> 100 µM	> 35.8 µM	> 100 µM	> 73.4 µM	87.1 µM	2.53 µM	37 µM	0.677 µM	6.17 µM	2.51 µM	26.7 µM	1.02 µM	> 28.4 µM		15 µM
CO/N=C1/c2sccc2[C@H](NC(=O)C(F)(F)F)[C@@H]1O	> 100 µM	> 100 µM	> 100 µM	> 100 µM		> 100 µM	> 100 µM	> 100 µM	> 100 µM	> 100 µM										
